From patent US9943076B2, “Boron added cell cryopreservation medium” (YEDITEPE ÜNIVERSITESI, priority 2013, dated 2018)

Columns and labels:
[1] = tested on: human tooth germ stem cells
Protocol: The intermediate concentrations to be applied on the cells were prepared in the cell culture medium and were applied on the human tooth germ stem cells.

[2] = tested on: human tooth germ stem cells; conditions: FIG. 2
Protocol: During the freezing process, different from the standard protocol, 20 μg/ml NaB was added to the cell cryopreservation medium. The control group was incubated by a standard cryopreservation medium. During freezing of the cells, different amounts of Me2SO (10%, 7%, 5% and 3% Me2SO) were added to the medium which contained 20% FBS (Fetal Bovine Serum) and 1% PSA (penicillin streptomycin amphotericin) in addition to 20 μg/ml NaB. Except for the group which was frozen for an extended period (6 months), the other cells were subjected to 4 repeating freeze-thaw processes. During each freezing process, one million cells were placed into one freezing tube and were frozen to −80° C. by using a freezing tank. The freezing tubes were transferred to −196° C. liquid nitrogen vapor one day later. After each freezing process, the cells were rapidly molten in a 37° C. water bath and viability analyses were performed with trypan blue.

[3] = tested on: human tooth germ stem cells; conditions: 20 μg/ml NaB + 5% Me2SO, thawed after long term freezing

sodium pentaborate pentahydrate [NaB]
concentration at which toxic effect was observed [1]: ≥ 200 µg/mL | toxic effect in cell viability analysis of frozen cells ([2]; 20 μg/ml NaB in the presence of 5% Me2SO, repeatedly frozen cells and cells stored long term (6 months)): decreased toxic effect | cell viability over repeated freeze-thaw processes ([2]; 20 μg/ml NaB, 5% Me2SO in cryopreservation medium): started to increase during and after the second freeze-thaw process | differentiation of the cells into chondrogenic lineage [3]: increase | differentiation of the cells into odontogenic lineage [3]: increase | stem cell differentiation into adipose tissue [3]: slight decrease | differentiation potentials of the cells (staining and immunocytochemistry analyses) ([3]; FIG. 3-4): no significant change
